In brackets after ≈: the same amount, converted by molar mass. Bridge positions count the residues as written; N and C are the ends. Square brackets hold non-standard residues; d marks the D form. Peptide text beside a SMILES is read from it. R5 = C=CCCC[C@@](C)(N)C(=O)O; S5 = C=CCCC[C@](C)(N)C(=O)O
Experiments:
Type in all cases: functional
[1] = test system: Pseudomonas aeruginosa; experiment: Antibacterial activity against Pseudomonas aeruginosa PAO1 assessed as inhibition of bacterial growth measured after 24 hrs by broth microdilution method
[2] = test system: Staphylococcus aureus; experiment: Antibacterial activity against Staphylococcus aureus ATCC 25923 assessed as inhibition of bacterial growth measured after 24 hrs by broth microdilution method
[3] = test system: Klebsiella pneumoniae; experiment: Antibacterial activity against Klebsiella pneumoniae ATCC 13883 assessed as inhibition of bacterial growth measured after 24 hrs by broth microdilution method

Compound	MIC [1] [µM]	MIC [2] [µM]	MIC [3] [µM]
CC[C@H](C)[C@H](NC(=O)CNC(=O)[C@H](CC(=O)O)NC(=O)[C@H](CCCNC(=N)N)NC(=O)[C@@H](NC(=O)[C@H](CC(N)=O)NC(=O)[C@H](CCC(N)=O)NC(=O)CNC(=O)[C@@H](NC(=O)[C@H](CCCCN)NC(=O)[C@H](CCC(=O)O)NC(=O)[C@@H](NC(=O)[C@H](CCCCN)NC(=O)[C@H](CCCCN)NC(=O)[C@H](Cc1ccccc1)NC(=O)[C@H](CC(C)C)NC(=O)[C@H](CCCCN)NC(=O)[C@H](Cc1c[nH]c2ccccc12)NC(=O)[C@H](CCCCN)NC(C)=O)[C@@H](C)CC)C(C)C)[C@@H](C)CC)C(=O)N[C@H](C(=O)N[C@@H](CCCCN)C(=O)N[C@@H](C)C(=O)NCC(=O)N1CCC[C@H]1C(=O)N[C@@H](C)C(=O)N[C@H](C(=O)N[C@@]1(C)CCC/C=C\CCC[C@@](C)(C(=O)N[C@@H](C)C(=O)N[C@H](C(=O)N[C@@H](CCC(N)=O)C(=O)N[C@H](C(=O)N[C@@H](C)C(=O)N[C@@H](CCCCN)C(N)=O)[C@@H](C)CC)[C@@H](C)O)NC(=O)CNC(=O)[C@H](C(C)C)NC(=O)[C@H](C(C)C)NC1=O)C(C)C)[C@@H](C)CC (Ac-KWKLFKKIEKVGQNIRDGIIKAGPAV[S5]VVG[S5]ATQIAK-NH2; staple (Z) 27-31)	6.25 (≈ 25.6 µg/mL)	3.13 (≈ 12.8 µg/mL)	6.25 (≈ 25.6 µg/mL)
CC[C@H](C)[C@@H]1NC(=O)CNC(=O)[C@](C)(NC(=O)[C@H](CCCNC(=N)N)NC(=O)[C@@H](NC(=O)[C@H](CC(N)=O)NC(=O)[C@H](CCC(N)=O)NC(=O)CNC(=O)[C@@H](NC(=O)[C@H](CCCCN)NC(=O)[C@H](CCC(=O)O)NC(=O)[C@@H](NC(=O)[C@H](CCCCN)NC(=O)[C@H](CCCCN)NC(=O)[C@H](Cc2ccccc2)NC(=O)[C@H](CC(C)C)NC(=O)[C@H](CCCCN)NC(=O)[C@H](Cc2c[nH]c3ccccc23)NC(=O)[C@H](CCCCN)NC(C)=O)[C@@H](C)CC)C(C)C)[C@@H](C)CC)CCC/C=C\CCC[C@](C)(C(=O)N[C@@H](C)C(=O)NCC(=O)N2CCC[C@H]2C(=O)N[C@@H](C)C(=O)N[C@H](C(=O)N[C@@H](C)C(=O)N[C@H](C(=O)N[C@H](C(=O)NCC(=O)N[C@@H](CCC(N)=O)C(=O)N[C@@H](C)C(=O)N[C@H](C(=O)N[C@@H](CCC(N)=O)C(=O)N[C@H](C(=O)N[C@@H](C)C(=O)N[C@@H](CCCCN)C(N)=O)[C@@H](C)CC)[C@@H](C)O)C(C)C)C(C)C)C(C)C)NC(=O)[C@H]([C@@H](C)CC)NC1=O (Ac-KWKLFKKIEKVGQNIR[R5]GII[R5]AGPAVAVVGQATQIAK-NH2; staple (Z) 17-21)	> 100	6.25 (≈ 25.3 µg/mL)	25 (≈ 101 µg/mL)
CC[C@H](C)[C@@H]1NC(=O)CNC(=O)[C@H](CC(=O)O)NC(=O)[C@@](C)(NC(=O)[C@@H](NC(=O)[C@H](CC(N)=O)NC(=O)[C@H](CCC(N)=O)NC(=O)CNC(=O)[C@@H](NC(=O)[C@H](CCCCN)NC(=O)[C@H](CCC(=O)O)NC(=O)[C@@H](NC(=O)[C@H](CCCCN)NC(=O)[C@H](CCCCN)NC(=O)[C@H](Cc2ccccc2)NC(=O)[C@H](CC(C)C)NC(=O)[C@H](CCCCN)NC(=O)[C@H](Cc2c[nH]c3ccccc23)NC(=O)[C@H](CCCCN)NC(C)=O)[C@@H](C)CC)C(C)C)[C@@H](C)CC)CCC/C=C\CCC[C@@](C)(C(=O)N[C@@H](CCCCN)C(=O)N[C@@H](C)C(=O)NCC(=O)N2CCC[C@H]2C(=O)N[C@@H](C)C(=O)N[C@H](C(=O)N[C@@H](C)C(=O)N[C@H](C(=O)N[C@H](C(=O)NCC(=O)N[C@@H](CCC(N)=O)C(=O)N[C@@H](C)C(=O)N[C@H](C(=O)N[C@@H](CCC(N)=O)C(=O)N[C@H](C(=O)N[C@@H](C)C(=O)N[C@@H](CCCCN)C(N)=O)[C@@H](C)CC)[C@@H](C)O)C(C)C)C(C)C)C(C)C)NC1=O (Ac-KWKLFKKIEKVGQNI[S5]DGI[S5]KAGPAVAVVGQATQIAK-NH2; staple (Z) 16-20)	100 (≈ 403 µg/mL)	12.5 (≈ 50.3 µg/mL)	6.25 (≈ 25.2 µg/mL)
CC[C@H](C)[C@H](NC(=O)CNC(=O)[C@]1(C)CCC/C=C\CCC[C@](C)(NC(=O)CNC(=O)[C@@H](NC(=O)[C@H](CCCCN)NC(=O)[C@H](CCC(=O)O)NC(=O)[C@@H](NC(=O)[C@H](CCCCN)NC(=O)[C@H](CCCCN)NC(=O)[C@H](Cc2ccccc2)NC(=O)[C@H](CC(C)C)NC(=O)[C@H](CCCCN)NC(=O)[C@H](Cc2c[nH]c3ccccc23)NC(=O)[C@H](CCCCN)NC(C)=O)[C@@H](C)CC)C(C)C)C(=O)N[C@@H](CC(N)=O)C(=O)N[C@@H]([C@@H](C)CC)C(=O)N[C@@H](CCCNC(=N)N)C(=O)N1)C(=O)N[C@H](C(=O)N[C@@H](CCCCN)C(=O)N[C@@H](C)C(=O)NCC(=O)N1CCC[C@H]1C(=O)N[C@@H](C)C(=O)N[C@H](C(=O)N[C@@H](C)C(=O)N[C@H](C(=O)N[C@H](C(=O)NCC(=O)N[C@@H](CCC(N)=O)C(=O)N[C@@H](C)C(=O)N[C@H](C(=O)N[C@@H](CCC(N)=O)C(=O)N[C@H](C(=O)N[C@@H](C)C(=O)N[C@@H](CCCCN)C(N)=O)[C@@H](C)CC)[C@@H](C)O)C(C)C)C(C)C)C(C)C)[C@@H](C)CC (Ac-KWKLFKKIEKVG[S5]NIR[S5]GIIKAGPAVAVVGQATQIAK-NH2; staple (Z) 13-17)	100 (≈ 405 µg/mL)	50 (≈ 203 µg/mL)	6.25 (≈ 25.3 µg/mL)
CC[C@H](C)[C@H](NC(=O)CNC(=O)[C@H](CC(=O)O)NC(=O)[C@]1(C)CCC/C=C\CCC[C@](C)(NC(=O)[C@@H](NC(=O)[C@H](CCCCN)NC(=O)[C@H](CCC(=O)O)NC(=O)[C@@H](NC(=O)[C@H](CCCCN)NC(=O)[C@H](CCCCN)NC(=O)[C@H](Cc2ccccc2)NC(=O)[C@H](CC(C)C)NC(=O)[C@H](CCCCN)NC(=O)[C@H](Cc2c[nH]c3ccccc23)NC(=O)[C@H](CCCCN)NC(C)=O)[C@@H](C)CC)C(C)C)C(=O)N[C@@H](CCC(N)=O)C(=O)N[C@@H](CC(N)=O)C(=O)N[C@@H]([C@@H](C)CC)C(=O)N1)C(=O)N[C@H](C(=O)N[C@@H](CCCCN)C(=O)N[C@@H](C)C(=O)NCC(=O)N1CCC[C@H]1C(=O)N[C@@H](C)C(=O)N[C@H](C(=O)N[C@@H](C)C(=O)N[C@H](C(=O)N[C@H](C(=O)NCC(=O)N[C@@H](CCC(N)=O)C(=O)N[C@@H](C)C(=O)N[C@H](C(=O)N[C@@H](CCC(N)=O)C(=O)N[C@H](C(=O)N[C@@H](C)C(=O)N[C@@H](CCCCN)C(N)=O)[C@@H](C)CC)[C@@H](C)O)C(C)C)C(C)C)C(C)C)[C@@H](C)CC (Ac-KWKLFKKIEKV[S5]QNI[S5]DGIIKAGPAVAVVGQATQIAK-NH2; staple (Z) 12-16)	> 100	25 (≈ 102 µg/mL)	> 100

Further lines, results first:

MIC [1] [µM]	MIC [2] [µM]	MIC [3] [µM]	Compound
3.13 (≈ 13 µg/mL)	3.13 (≈ 13 µg/mL)	3.13 (≈ 13 µg/mL)	CC[C@H](C)[C@H](NC(=O)[C@H](CCC(N)=O)NC(=O)[C@@H](NC(=O)[C@H](C)NC(=O)[C@H](CCC(N)=O)NC(=O)CNC(=O)[C@@H](NC(=O)[C@@H](NC(=O)[C@H](C)NC(=O)[C@@H](NC(=O)[C@H](C)NC(=O)[C@@H]1CCCN1C(=O)CNC(=O)[C@]1(C)CCC/C=C\CCC[C@](C)(NC(=O)[C@H](CC(=O)O)NC(=O)[C@H](CCCNC(=N)N)NC(=O)[C@@H](NC(=O)[C@H](CC(N)=O)NC(=O)[C@H](CCC(N)=O)NC(=O)CNC(=O)[C@@H](NC(=O)[C@H](CCCCN)NC(=O)[C@H](CCC(=O)O)NC(=O)[C@@H](NC(=O)[C@H](CCCCN)NC(=O)[C@H](CCCCN)NC(=O)[C@H](Cc2ccccc2)NC(=O)[C@H](CC(C)C)NC(=O)[C@H](CCCCN)NC(=O)[C@H](Cc2c[nH]c3ccccc23)NC(=O)[C@H](CCCCN)NC(C)=O)[C@@H](C)CC)C(C)C)[C@@H](C)CC)C(=O)N[C@@H]([C@@H](C)CC)C(=O)N[C@@H]([C@@H](C)CC)C(=O)N[C@@H](CCCCN)C(=O)N1)C(C)C)C(C)C)C(C)C)[C@@H](C)O)C(=O)N[C@@H](C)C(=O)N[C@@H](CCCCN)C(N)=O (Ac-KWKLFKKIEKVGQNIRD[S5]IIK[S5]GPAVAVVGQATQIAK-NH2; staple (Z) 18-22)
100 (≈ 407 µg/mL)	> 100	12.5 (≈ 50.9 µg/mL)	CC[C@H](C)[C@H](NC(=O)[C@H](CCC(N)=O)NC(=O)[C@@H](NC(=O)[C@H](C)NC(=O)[C@H](CCC(N)=O)NC(=O)CNC(=O)[C@@H](NC(=O)[C@@H](NC(=O)[C@H](C)NC(=O)[C@@H](NC(=O)[C@H](C)NC(=O)[C@@H]1CCCN1C(=O)CNC(=O)[C@H](C)NC(=O)[C@H](CCCCN)NC(=O)[C@@H](NC(=O)[C@]1(C)CCC/C=C\CCC[C@](C)(NC(=O)[C@H](CC(N)=O)NC(=O)[C@H](CCC(N)=O)NC(=O)CNC(=O)[C@@H](NC(=O)[C@H](CCCCN)NC(=O)[C@H](CCC(=O)O)NC(=O)[C@@H](NC(=O)[C@H](CCCCN)NC(=O)[C@H](CCCCN)NC(=O)[C@H](Cc2ccccc2)NC(=O)[C@H](CC(C)C)NC(=O)[C@H](CCCCN)NC(=O)[C@H](Cc2c[nH]c3ccccc23)NC(=O)[C@H](CCCCN)NC(C)=O)[C@@H](C)CC)C(C)C)C(=O)N[C@@H](CCCNC(=N)N)C(=O)N[C@@H](CC(=O)O)C(=O)NCC(=O)N1)[C@@H](C)CC)C(C)C)C(C)C)C(C)C)[C@@H](C)O)C(=O)N[C@@H](C)C(=O)N[C@@H](CCCCN)C(N)=O (Ac-KWKLFKKIEKVGQN[S5]RDG[S5]IKAGPAVAVVGQATQIAK-NH2; staple (Z) 15-19)
> 100	> 100	> 100	CC[C@H](C)[C@H](NC(=O)[C@H](CCC(N)=O)NC(=O)[C@@H](NC(=O)[C@H](C)NC(=O)[C@H](CCC(N)=O)NC(=O)CNC(=O)[C@@H](NC(=O)[C@@H](NC(=O)[C@H](C)NC(=O)[C@@H](NC(=O)[C@H](C)NC(=O)[C@@H]1CCCN1C(=O)CNC(=O)[C@H](C)NC(=O)[C@H](CCCCN)NC(=O)[C@@H](NC(=O)[C@@H](NC(=O)[C@]1(C)CCC/C=C\CCC[C@](C)(NC(=O)[C@H](CCC(N)=O)NC(=O)CNC(=O)[C@@H](NC(=O)[C@H](CCCCN)NC(=O)[C@H](CCC(=O)O)NC(=O)[C@@H](NC(=O)[C@H](CCCCN)NC(=O)[C@H](CCCCN)NC(=O)[C@H](Cc2ccccc2)NC(=O)[C@H](CC(C)C)NC(=O)[C@H](CCCCN)NC(=O)[C@H](Cc2c[nH]c3ccccc23)NC(=O)[C@H](CCCCN)NC(C)=O)[C@@H](C)CC)C(C)C)C(=O)N[C@@H]([C@@H](C)CC)C(=O)N[C@@H](CCCNC(=N)N)C(=O)N[C@@H](CC(=O)O)C(=O)N1)[C@@H](C)CC)[C@@H](C)CC)C(C)C)C(C)C)C(C)C)[C@@H](C)O)C(=O)N[C@@H](C)C(=O)N[C@@H](CCCCN)C(N)=O (Ac-KWKLFKKIEKVGQ[S5]IRD[S5]IIKAGPAVAVVGQATQIAK-NH2; staple (Z) 14-18)

From ChEMBL document CHEMBL6115030, “Systematic All-Hydrocarbon Stapling Analysis for Cecropin A Generates a Potent and Stable Antimicrobial Peptide” (J Med Chem, 2025)
